Assay [1] addresses T1, F508del/R1070W-CFTR (Homo sapiens, UniProt P13569, DEL508-508/R1070W).
T1 construct: CFTR identification in pull-down studies and analysis of full-length CFTR in protein maturation assays; expressed in transfected cells; host or cells: HEK293 (transient)
Briefly: FLIPR membrane potential assay of CFTR channel activity in transfected HEK293 cells. To be noted: HEK293, 24 h; ARN23765 10 nM, VX-661 3 μM. The assay is classed as cell-based. The method, then: (§1) HS-YFP-based assay for CFTR activity
(§2) Twenty-four hours after seeding on 96-well plates, CFBE41o- cells stably over-expressing F508del-CFTR and the HS-YFP were treated with test compounds at different concentrations in the 3 nM-10 µM range.1 Cells treated with vehicle alone (DMSO) and with ARN23765, respectively, served as negative and positive controls. The following day, cells were washed with PBS containing (in mM) 137 NaCl, 2.7 KCl, 8.1 Na2HPO4, 1.5 KH2PO4, 1.0 CaCl2, and 0.5 MgCl2. Cells were then incubated for 25 min with […] of PBS plus forskolin (20 µM) and VX-770 (1 µM) to maximally stimulate F508del-CFTR. Cells were then transferred to a microplate reader (FluoStar Galaxy; BMG Labtech, Offenburg, Germany) for CFTR activity determination. The plate reader was equipped with high-quality excitation (HQ500/20X: 500 ± 10 nm) and emission (HQ535/30M: 535 ± 15 nm) filters for YFP (Chroma Technology). Each assay comprised a continuous 14 s fluorescence reading, 2 s before and 12 s after injection of […] of an iodide-containing solution (PBS with Cl- replaced by I-; final I- concentration […]). Data were normalized to the initial background-subtracted fluorescence. […]
(§3) Cell lysates or eluates from pull-down experiments were resolved by SDS-PAGE on 4-8 % tris-acetate gels (EA0378BOX, Life technologies) and were transferred into PVDF membranes (Immobilion-E IEVH00005, Millipore). […] Images were acquired with Chemidoc MP (BIO-RAD laboratories) and quantified with Image J software.
(§4) CFTR Channel function analysis by fluorometric imaging plate reader functional (FLIPR) assay FLIPR assay was performed as previously described.3 Briefly, HEK293 cells were seeded in 96-well plates (black, flat bottom, Corning) and transfected with mutated CFTR constructs. […]
(§5) µM) for 24 h at 30 °C or 37 °C. […] The plate was then read in a fluorescence plate reader (SpectraMax i3, Molecular Devices) at 37 °C (excitation: 530 nm, emission: 560 nm). […] CFTR-mediated depolarization was detected as an increase in fluorescence. […] The peak changes in fluorescence were normalized to fluorescence immediately […]

Assay [2] deals with T2, R170G-CFTR (Homo sapiens, UniProt P13569, R170G).
T2 construct: CFTR identification in pull-down studies and analysis of full-length CFTR in protein maturation assays; expressed in transfected cells; host or cells: HEK293 (transient)
T2 sequence (P13569 whole entry R170G): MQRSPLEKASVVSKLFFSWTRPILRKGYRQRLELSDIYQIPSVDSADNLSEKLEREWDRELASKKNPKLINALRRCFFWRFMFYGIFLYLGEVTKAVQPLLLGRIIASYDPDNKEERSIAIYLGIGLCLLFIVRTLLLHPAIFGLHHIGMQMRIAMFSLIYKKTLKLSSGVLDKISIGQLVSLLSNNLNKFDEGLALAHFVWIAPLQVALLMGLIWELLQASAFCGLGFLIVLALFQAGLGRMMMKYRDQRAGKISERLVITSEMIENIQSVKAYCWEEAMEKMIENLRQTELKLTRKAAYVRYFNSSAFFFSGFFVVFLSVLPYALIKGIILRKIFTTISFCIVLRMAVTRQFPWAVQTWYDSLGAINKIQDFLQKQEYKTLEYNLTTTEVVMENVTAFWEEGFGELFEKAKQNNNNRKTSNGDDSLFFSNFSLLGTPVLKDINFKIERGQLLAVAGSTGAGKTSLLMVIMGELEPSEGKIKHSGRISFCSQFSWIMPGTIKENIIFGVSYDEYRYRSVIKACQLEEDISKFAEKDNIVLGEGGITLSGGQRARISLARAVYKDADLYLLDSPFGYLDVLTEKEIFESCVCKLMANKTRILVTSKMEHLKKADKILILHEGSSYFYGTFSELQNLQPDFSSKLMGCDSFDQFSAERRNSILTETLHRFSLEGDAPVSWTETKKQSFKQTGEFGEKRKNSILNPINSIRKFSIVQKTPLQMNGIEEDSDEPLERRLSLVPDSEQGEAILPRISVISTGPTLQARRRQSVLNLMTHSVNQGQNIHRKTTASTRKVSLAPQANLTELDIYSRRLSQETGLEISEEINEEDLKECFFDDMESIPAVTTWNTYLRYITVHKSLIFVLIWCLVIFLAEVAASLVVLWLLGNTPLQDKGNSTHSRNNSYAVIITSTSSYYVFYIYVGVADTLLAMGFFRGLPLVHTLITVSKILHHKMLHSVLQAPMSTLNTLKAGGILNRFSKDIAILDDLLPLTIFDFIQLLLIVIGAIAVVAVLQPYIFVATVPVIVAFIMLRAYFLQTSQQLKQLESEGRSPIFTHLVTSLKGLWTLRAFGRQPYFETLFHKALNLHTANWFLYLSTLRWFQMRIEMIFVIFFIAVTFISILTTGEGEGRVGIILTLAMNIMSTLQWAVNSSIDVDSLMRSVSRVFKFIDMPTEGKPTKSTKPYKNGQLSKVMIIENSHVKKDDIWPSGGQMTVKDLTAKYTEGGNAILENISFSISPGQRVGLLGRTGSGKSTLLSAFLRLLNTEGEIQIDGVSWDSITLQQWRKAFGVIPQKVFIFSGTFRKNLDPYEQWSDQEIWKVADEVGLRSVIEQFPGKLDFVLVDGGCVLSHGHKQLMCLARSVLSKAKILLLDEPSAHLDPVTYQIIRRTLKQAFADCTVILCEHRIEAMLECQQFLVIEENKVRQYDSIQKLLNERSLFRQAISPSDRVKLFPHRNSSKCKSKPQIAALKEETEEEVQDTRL
The description is as above. The conditions noted are these: HEK293, 24 h, 10 nM. The assay is classed as cell-based. The method, then:
as §1, §2, §3, §4, §5

T1 sequence (P13569 with tags, fused parts or gaps DEL508-508/R1070W): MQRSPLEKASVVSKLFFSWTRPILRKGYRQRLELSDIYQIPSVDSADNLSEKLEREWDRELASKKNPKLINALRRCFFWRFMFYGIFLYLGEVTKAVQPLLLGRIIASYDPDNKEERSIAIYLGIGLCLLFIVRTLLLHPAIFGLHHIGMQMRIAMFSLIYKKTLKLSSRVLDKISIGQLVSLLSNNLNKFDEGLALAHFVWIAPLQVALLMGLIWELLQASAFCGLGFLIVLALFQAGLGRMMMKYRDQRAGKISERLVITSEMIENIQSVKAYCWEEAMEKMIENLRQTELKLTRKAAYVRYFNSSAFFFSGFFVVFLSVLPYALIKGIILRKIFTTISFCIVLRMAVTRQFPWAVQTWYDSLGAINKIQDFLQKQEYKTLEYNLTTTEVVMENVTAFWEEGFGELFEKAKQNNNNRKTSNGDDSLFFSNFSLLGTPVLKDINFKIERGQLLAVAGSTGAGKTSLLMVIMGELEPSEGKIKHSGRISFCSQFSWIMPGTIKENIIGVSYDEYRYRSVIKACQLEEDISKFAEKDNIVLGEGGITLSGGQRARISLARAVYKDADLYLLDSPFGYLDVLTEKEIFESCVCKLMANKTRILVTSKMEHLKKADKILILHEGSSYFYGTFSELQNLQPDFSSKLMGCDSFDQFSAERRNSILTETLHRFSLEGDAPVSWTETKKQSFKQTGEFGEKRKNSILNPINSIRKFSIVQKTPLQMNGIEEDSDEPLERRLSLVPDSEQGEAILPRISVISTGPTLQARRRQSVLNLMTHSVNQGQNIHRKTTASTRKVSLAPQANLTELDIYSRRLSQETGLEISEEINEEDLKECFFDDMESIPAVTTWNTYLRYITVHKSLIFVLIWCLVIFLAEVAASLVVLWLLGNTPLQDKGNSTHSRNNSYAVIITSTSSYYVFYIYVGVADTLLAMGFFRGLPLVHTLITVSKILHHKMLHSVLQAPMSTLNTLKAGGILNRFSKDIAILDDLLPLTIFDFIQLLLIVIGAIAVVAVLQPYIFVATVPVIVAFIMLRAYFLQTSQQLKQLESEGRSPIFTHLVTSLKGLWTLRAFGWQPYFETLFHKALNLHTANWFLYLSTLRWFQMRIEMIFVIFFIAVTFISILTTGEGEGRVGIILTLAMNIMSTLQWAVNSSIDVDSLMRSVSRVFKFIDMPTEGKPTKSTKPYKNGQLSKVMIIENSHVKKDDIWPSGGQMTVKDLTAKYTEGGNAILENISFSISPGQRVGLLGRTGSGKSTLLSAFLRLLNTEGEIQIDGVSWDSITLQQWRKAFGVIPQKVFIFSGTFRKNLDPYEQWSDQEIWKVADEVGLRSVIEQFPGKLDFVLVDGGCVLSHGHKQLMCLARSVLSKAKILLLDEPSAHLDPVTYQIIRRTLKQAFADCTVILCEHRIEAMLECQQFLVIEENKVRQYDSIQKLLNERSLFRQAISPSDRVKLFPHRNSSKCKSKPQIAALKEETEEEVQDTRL

`CN(C(=O)c1cccc(-n2nc(C(F)(F)F)c3c2[C@@H](Oc2ccc(C(=O)O)cc2)CCC3)c1)c1ccc2c(c1)OC(F)(F)O2` [ARN23765]: in assay [1], the “F508del/R1070W channel activity (FLIPR)” value is on record as “further enhanced”. Moreover, the “R170G-CFTR activity (FLIPR)” value in assay [2] was “improving”.

These data come from article PMC11873939, “Target Identification with Live-Cell Photoaffinity Labeling and Mechanism of Action Elucidation of ARN23765, a Highly Potent CFTR Corrector” (Journal of Medicinal Chemistry, 2025).
